US20250339531A1, “DUX4 POLYPEPTIDES AND NUCLEIC ACIDS FOR TREATING INFLAMMATORY AND AUTOIMMUNE CONDITIONS” (Fred Hutchinson Cancer Center, priority 2021, published 2025)

How the values were obtained:
IDO1 = experiment: Immunofluorescence of IFNG-induced IDO1 in FSHD MB200 myotubes; type: cell-based, human; conditions: DUX4-positive versus DUX4-negative FSHD myotubes
Protocol: All myoblast experiments were conducted in immortalized MB135 or MB200 myoblast cell lines (isolated from a control or FSHD2 subject, respectively cultured in Ham's F-10 Nutrient Mix (Gibco) supplemented with 15% fetal bovine serum (Hyclone), 100 U/100 μg/ml penicillin/streptomycin (Gibco), 1 μM dexamethasone (Sigma), and 10 ng/ml recombinant human basic fibroblast growth factor (PeproTech). To differentiate the myoblasts to myotubes, media was changed to DMEM supplemented with 10 μg/ml insulin (Sigma) and 10 μg/ml transferrin (Sigma). Cell lines containing doxycycline-inducible transgenes were additionally cultured with 2 μg/mL puromycin (Sigma). Transgenes were induced with 1 μg/mL of doxycycline (Sigma) for 4 hours prior to other treatments for a total of 20 hrs. The Kitra-SRS cells (RRID:CVCL_YI69) were provided by Dr. H. Otani and Osaka University (Nakai et al., 2019) and were cultured in DMEM supplemented with 10% fetal bovine serum (Hyclone) and 100 U/100 μg/ml penicillin/streptomycin (Gibco). Biological replicates consisted of independent but parallel experiments, such as simultaneously stimulating three cell culture plates with IFNγ. Technical replicates consisted of repeat measurements of the same biological sample, such as loading the same biological sample in triplicate for analysis by RT-qPCR. […]

[1] = tested on: de novo protein synthesis; experiment: HPG Click-iT labeling of nascent proteins; type: cell-based, human; conditions: FSHD myotubes and SuSa cells co-stained for H3.X/Y
Protocol: Cells were incubated for 30 minutes in DMEM or RPMI media depleted for methionine and cysteine (Gibco), followed by a 1-hour incubation in methionine-depleted media supplemented with 200 μM HPG (Sigma). Cells were fixed with 4% paraformaldehyde (Electron Microscopy Sciences) diluted in PBS for 10 minutes at room temperature and stained with Click-iT HPG Alexa Fluor 488 Protein Synthesis Assay Kit (Invitrogen) according to manufacturer's protocol.

endogenous DUX4: DUX4 expressed endogenously in FSHD myotubes and SuSa cells
IFNG induction of IDO1 (IDO1): sufficient to prevent ISG induction by IFNG | HPG Click-iT signal in cells with endogenous expression [1]: dramatic reduction in HPG Click-iT signal
